Measurements: publication PMC11215778 (Journal of Medicinal Chemistry, 2024)
Like-named read-outs stand apart in the source and are kept apart here.

Key:
[1] = Cytotoxicity assay (CellTiter-Glo) on normal human dermal fibroblasts; type: cell-based; details: normal human dermal fibroblasts (NHDF)
Method: The cytotoxicity of the compounds was evaluated in nontumor normal human dermal fibroblasts (NHDF) purchased from ATCC (PCS-201-012, Manassas, VA, USA). The cells were negatively tested for the presence of mycoplasma (cat. #: LT07-318 MycoAlert Mycoplasma Detection kit, Lonza). The cells were cultivated in DMEM high glucose 4.5 g/L medium (cat. #: R8758, Merck, Germany). The medium was supplemented with 10% fetal bovine serum (cat. #: F7524, Merck, Germany; inactivated at 56 °C for 30 min) and 1.0% of L-glutamine (cat. #: G7513, Merck, Germany) without antibiotics. Cells were seeded in 384-well format white micro plates (cat. #: 164610, Nunc, Thermo Fisher Scientific, USA) at a concentration of 60,000 cells per mL and left to rest overnight. Next day, 1 and 10 μM concentrations of the tested compounds were added in triplicates. The cells were cultivated at 37 °C and 5% CO2 for 72 h after which a luminescent cell viability assay (CellTiter-Glo 2.0, cat. #: Promega, Madison, USA) was added. The plate was left on a shaker (350 rpm) in the dark for 20 min at RT. Luminescence was measured by a Spark multimode reader from Tecan (Tecan Group Ltd., Switzerland). The signal of the compound-treated cells was related to the value of the untreated control, which was arbitrarily set to 100% viability.

[2] = Microsomal stability, human liver microsomes; type: in vitro ADME; details: pooled liver microsomes, pH 7.4, read-out: Microsomal stability CLint, hum
Method: (§1) . Zero time points were prepared by adding ice-cold methanol to a mixture of the compound with cofactors prior to the addition of microsomes. […]. Intrinsic clearance (CLint) was calculated using the following formula: [drawing 1] where V = incubation volume per milligram of microsomal protein (μL/mg) and t1/2 = microsomal half-life.

D2 receptor = details: cited from earlier work
[3] = Microsomal stability, rat liver microsomes; type: in vitro ADME; details: pH 7.4
Method: as §1

D3 receptor = details: cited from earlier work
in vitro [4] = type: in vitro ADME; details: human, Caco-2
Method: A Transwell system consisting of two compartments separated by a monolayer of differentiated Caco-2 cells was employed for the intestinal permeability evaluation. Thanks to the ability of Caco-2 cells to become polarized, bidirectional transport (A–B and B–A) could be measured and the efflux ratio calculated.
The transepithelial bidirectional transport of tested compounds (5 μM, pH 7.4/7.4) across the Caco-2 monolayers was studied using the BD BioCoat HTS Caco-2 assay system (BD Biosciences, Bedford, MA) as described in detail elsewhere.[47] Aliquots were collected from the donor and acceptor compartment at the end of the transport period (3 h), the integrity of monolayers was verified using Lucifer Yellow dye, and the compounds were quantified using LC–MS/MS (Triple Quad 6500+, Sciex). The apparent permeability coefficient (Papp) was calculated from the following equation: Papp = (dQ/dt)/C0 × A, where dQ/dt is the rate of absorption of the drug across the cells, C0 is the donor compartment concentration at time zero, and A is the area of the monolayer. The efflux ratio was expressed as (Papp B–A)/(Papp A–B). Recovery (%) was determined as (total compound mass in donor and receiver compartments at the end of the incubation/initial compound mass in the donor compartment) × 100.

[5] = Plasma stability assay, human plasma; type: in vitro ADME; details: pooled plasma, read-out: Plasma stability % remaining at 6 h, hum
Method: […] The reactions were terminated by adding 4 vol of ice-cold methanol, and the samples were then mixed vigorously, frozen at −20 °C for 1 h, and left overnight at 8 °C. After that, the samples were centrifuged, and the supernatant was analyzed by means of LC–MS/MS Sciex 6500 triple quadrupole (Sciex, Framingham, MA, USA). Zero time points were prepared by adding ice-cold methanol to the compound prior to the addition of the plasma.

[6] = Plasma stability assay, rat plasma; type: in vitro ADME
ADRA1A = target: T1, ADRA1A (Homo sapiens, UniProt P35348); details: read-out: ADRA1A IC50; antagonist activity, receptor stimulated with EC80 of epinephrine, Chem-1 cells
T1 sequence (P35348 1-466): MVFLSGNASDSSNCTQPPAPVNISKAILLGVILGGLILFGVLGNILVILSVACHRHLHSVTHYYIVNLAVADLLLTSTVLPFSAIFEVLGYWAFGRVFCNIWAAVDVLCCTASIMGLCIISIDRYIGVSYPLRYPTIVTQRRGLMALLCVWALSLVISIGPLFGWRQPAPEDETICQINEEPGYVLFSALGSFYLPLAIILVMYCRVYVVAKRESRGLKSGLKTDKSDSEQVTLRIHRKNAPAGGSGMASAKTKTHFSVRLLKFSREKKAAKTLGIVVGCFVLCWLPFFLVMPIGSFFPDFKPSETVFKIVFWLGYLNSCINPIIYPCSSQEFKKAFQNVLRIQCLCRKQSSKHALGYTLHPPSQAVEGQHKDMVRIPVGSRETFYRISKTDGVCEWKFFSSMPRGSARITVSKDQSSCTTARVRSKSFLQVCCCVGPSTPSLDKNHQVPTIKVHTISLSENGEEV
Method: All prepared compounds were tested for their antagonistic activity using calcium flux assays on cells overexpressing the ADRA2A or ADRA1A adrenergic receptor as a primary screen (Table 2).
Chem-1 cells overexpressing ADRA2A or 1A adrenergic receptors were purchased from Merck Millipore (cat. #: HTS096RTA and HTS087RTA; Merck, Germany). The cells were cultured according to the manual. […] After 30 min of incubation with the assay buffer at 37 °C and 5% CO2, the cells were incubated at RT in a dark place for another 15 min. […] All compounds were added by an Agilent Bravo Automated Liquid Handling Platform (Agilent Technologies, USA). […] Before each kinetic measurement, the background fluorescence (F0) was measured, and the result was calculated as (Fmax – F0)/F0.

in vitro [7] = details: dog, MDCK-MDR1
Method: (§2) Canine MDR1 Knockout, Human MDR1 Knockin MDCKII cells (Sigma-Aldrich) were employed to estimate CNS permeability of the compounds. Briefly, the cells were seeded at a density of 30,000 cells per 24-well plate insert of the Transwell sandwich (CellQART, SABEU GmbH&Co.KG, Germany). They were left to differentiate for 5 days with medium exchange every other day. […] The treated cells were then returned to the incubator for 2 h at 37 °C. After that, samples were collected from both apical inserts and basolateral wells and analyzed using LC–MS (Triple Quad 6500+, Sciex). LY permeation was used to check for the integrity of monolayer in each sample. […] Only wells displaying LY permeability <2% were qualified for compound transport quantification. Apparent permeability coefficients (Papp's), efflux ratios, and recoveries for the compounds were calculated as described in Section 4.2.8. The data represent means ± SD of two independent experiments performed in triplicate.

P-gp (human MDR1) = assay: in vitro; details: dog, MDCK-MDR1
Method: as §2

[8] = 10 uM, read-out: NHDF viability at 10 uM (supplement csv)
[9] = 10 μM, untreated control = 100%, read-out: NHDF Viability 10 μM
[10] = human liver microsomes 0.5 mg/mL, 10 μM compound

Method for MDCKII-MDR1 cells: as §2

SMILES | viability at 72 h, 1 µM [1] | viability at 72 h, 10 µM [1, 8] | viability at 72 h, 10 µM [1, 9] | microsomal CLint at 10 µM [2, 10] | microsomal CLint at 10 µM ([3]; rat liver microsomes) | remaining at 6 h, 5 μM ([5]; human plasma, 5 μM, 37 °C) | remaining at 6 h, 5 μM [6] | IC50 (ADRA1A) | further results
COC(=O)[C@@H]1[C@H]2C[C@H]3c4[nH]c5ccccc5c4CCN3C[C@@H]2CC[C@@H]1O [Compound 1, Yohimbine, reference compound] | 112% | 105% | 105% | 7 ± 1 µL/min/mg | 2 µL/min/mg | 106% | 90 ± 2% |  | D2 receptor pKi (D2 receptor): 6.4; affinity toward the D3 receptor (D3 receptor): negligible; Papp B→A at 3 h, 5 µM (in vitro [4]; 5 μM, pH 7.4/7.4, 3 h, read-out: Caco-2 permeability Papp B–A): 23 ± 8 ×10⁻⁶ cm/s
CCOC(=O)[C@@H]1[C@H]2C[C@H]3c4[nH]c5ccccc5c4CCN3C[C@@H]2CC[C@@H]1O [Compound 3a, 17-α-Hydroxyyohimban-16-α-carboxylic Acid Ethyl Ester] | 111% | 108% | 108% | 14 µL/min/mg | 3 µL/min/mg | 109 ± 1% | 52% | 3340 nM | 
CC(C)OC(=O)[C@@H]1[C@H]2C[C@H]3c4[nH]c5ccccc5c4CCN3C[C@@H]2CC[C@@H]1O [Compound 3b, 17-α-Hydroxyyohimban-16-α-carboxylic Acid Isopropyl Ester] | 108% | 102% | 102% | 17 ± 1 µL/min/mg | 3 ± 1 µL/min/mg | 102% | 89% | 4160 nM | 
CC(C)CCOC(=O)[C@@H]1[C@H]2C[C@H]3c4[nH]c5ccccc5c4CCN3C[C@@H]2CC[C@@H]1O [Compound 3c, 17-α-Hydroxyyohimban-16-α-carboxylic Acid (3-Methylbutyl-1-yl) Ester] | 117% | 114% | 114% |  |  |  |  | 2650 nM | 
O=C(OC1CCCC1)[C@@H]1[C@H]2C[C@H]3c4[nH]c5ccccc5c4CCN3C[C@@H]2CC[C@@H]1O [Compound 3d, 17-α-Hydroxyyohimban-16-α-carboxylic Acid Cyclopentyl Ester] | 113% | 113% | 117% |  |  |  |  | 2640 nM | 
CC(C)(C)OC(=O)[C@@H]1[C@H]2C[C@H]3c4[nH]c5ccccc5c4CCN3C[C@@H]2CC[C@@H]1O [Compound 3e, 17-α-Hydroxyyohimban-16-α-carboxylic Acid tert-Butyl Ester] | 123% | 117% | 113% |  |  |  |  | 10500 nM | 
N[C@H]1C[C@H](OC(=O)[C@@H]2[C@H]3C[C@H]4c5[nH]c6ccccc6c5CCN4C[C@@H]3CC[C@@H]2O)C1 [Compound 4n, 17-α-Hydroxyyohimban-16-α-carboxylic Acid trans-3-Aminocyclobutyl Ester] | 93% | 89% | 89% | 2 ± 1 µL/min/mg |  | 99% | 84 ± 2% |  | recovery at 3 h, 5 µM (in vitro [4]): 103%; Papp A→B at 3 h, 5 µM (in vitro [4]; 5 μM, pH 7.4/7.4, 3 h, read-out: Caco-2 permeability Papp A–B): 3 ± 1 ×10⁻⁶ cm/s; recovery (B–A) in MDCKII-MDR1 cells (MDCKII-MDR1 cells; B–A direction): 98%; P-gp transporter substrate (MDCKII-MDR1 cells; MDCKII-MDR1 cells): substrate for the P-gp transporter; recovery at 2 h, 10 µM (in vitro [7]): 100%; Papp A→B at 2 h, 10 µM (P-gp (human MDR1)): 0.9 ×10⁻⁶ cm/s; Papp B→A at 2 h, 10 µM (P-gp (human MDR1)): 3.5 ± 1.4 ×10⁻⁶ cm/s
CN1CC[C@H](OC(=O)[C@@H]2[C@H]3C[C@H]4c5[nH]c6ccccc6c5CCN4C[C@@H]3CC[C@@H]2O)C1 [Compound 4p, 17-α-Hydroxyyohimban-16-α-carboxylic Acid (S)-N-Methylpyrrolidin-3-yl Ester] | 88% | 80% | 80% | 10 µL/min/mg | 1 ± 1 µL/min/mg | 109 ± 2% | 85 ± 2% | 3820 nM | 
O=C(O[C@H]1CCOC1)[C@@H]1[C@H]2C[C@H]3c4[nH]c5ccccc5c4CCN3C[C@@H]2CC[C@@H]1O [Compound 4q, 17-α-Hydroxyyohimban-16-α-carboxylic Acid (S)-Tetrahydrofuran-3-yl Ester] |  |  | 112% | 15 ± 1 µL/min/mg | 5 ± 1 µL/min/mg | 118% | 102 ± 1% | 537 nM | 
O=C(OC1COC1)[C@@H]1[C@H]2C[C@H]3c4[nH]c5ccccc5c4CCN3C[C@@H]2CC[C@@H]1O [Compound 4r, 17-α-Hydroxyyohimban-16-α-carboxylic Acid Oxetan-3-yl Ester] |  | 102% |  |  |  |  | 89 ± 1% | 1940 nM | microsomal CLint at 10 µM ([2]; human): 16 ± 1 µL/min/mg; microsomal CLint at 10 µM ([3]; rat, liver microsomes): 2 ± 1 µL/min/mg; remaining at 6 h, 5 μM ([5]; human): 94 ± 14%
